Measurements reported in patent publication US12564193B2, “Isoxazoline-substituted benzamide derivative, and preparation method therefor and use thereof” (SHANDONG UNITED PESTICIDE INDUSTRY CO., LTD., priority 2020, dated 2026).

Key:
Format in all cases: in vivo
[1] = tested on: Frankliniella occidentalis; assay: Insecticidal activity, spray on pre-infested radish plants: Frankliniella occidentalis; conditions: for pest or weed control at 1 ppm / pest or weed control at 10 ppm / pest or weed control at 25 ppm: Frankliniella occidentalis, 144 h, read-out: fatality rate on Frankliniella occidentalis; for Fatality rate on Frankliniella occidentalis (%): Table 3
Procedure: (§1) For determination of insecticidal activity, the test method was as follows: a test solution with a desired concentration was prepared by dissolving a test compound sample in a suitable solvent (the kind of solvent was such as acetone, methanol, DMSO, etc., and was selected according to its dissolving ability for the sample). The test cell was composed of a small open container with 12-15 day old radish plants inside. The plants were pre-infested by placing 30-40 pests located on one leaf cut from the cultivated plant on one leaf of the test plant (leaf cutting method). As the leaves dehydrated, the pests moved on the test plants. After the pre-infesting, the soil of the test cells was covered with a layer of sand.
The test method was as follows: the test was repeated for three times, and after spraying the formulated test compound, each test unit was allowed to dry for 1 hour, and then a black mesh cover was placed at the top. The test units were kept in a growth chamber at 25° C. and 70% relative humidity for 6 days. The mortality (fatality rate) of the insects was then visually assessed for each test unit, and the fatality rate was calculated as follows:
[formula] (1) Test Results for the Control of Frankliniella occidentalis by Exemplary Example Compounds

Plutella xylostella = assay: Insecticidal activity, spray on pre-infested radish plants: Plutella xylostella; conditions: for pest or weed control at 0.1 ppm / pest or weed control at 1 ppm / pest or weed control at 10 ppm: Plutella xylostella, 144 h, read-out: fatality rate on Plutella xylostella; for Fatality rate on Plutella xylostella (%): Table 3
Procedure: as §1
(§2) The test method was as follows: the test was repeated for three times, and after spraying the formulated test compound, each test unit was allowed to dry for 1 hour, and then a black mesh cover was placed at the top. The test units were kept in a growth chamber at 25° C. and 70% relative humidity for 6 days. The mortality (fatality rate) of the insects was then visually assessed for each test unit, and the fatality rate was calculated as follows: […]

Pieris rapae = assay: Insecticidal activity, spray on pre-infested radish plants: Pieris rapae; conditions: 144 h, read-out: fatality rate on Pieris rapae
Procedure: as §1, §2

Mythimna separata = assay: Insecticidal activity, spray on pre-infested radish plants: Mythimna separata; conditions: for pest or weed control at 0.1 ppm / pest or weed control at 1 ppm / pest or weed control at 10 ppm: Mythimna separata, 144 h, read-out: fatality rate on Mythimna separata; for Fatality rate on Mythimna separata (%): Table 3
Procedure: as §1, §2

Spodoptera litura = assay: Insecticidal activity, spray on pre-infested radish plants: Spodoptera litura; conditions: 144 h, read-out: fatality rate on Spodoptera litura
Procedure: as §1, §2

Chilo suppressalis = assay: Insecticidal activity, spray on pre-infested radish plants: Chilo suppressalis; conditions: for pest or weed control at 0.1 ppm / pest or weed control at 1 ppm / pest or weed control at 10 ppm: Chilo suppressalis, 144 h, read-out: fatality rate on Chilo suppressalis; for Fatality rate on Chilo suppressalis (%): Table 3
Procedure: as §1, §2

Cnaphalocrocis medinalis = assay: Insecticidal activity, spray on pre-infested radish plants: Cnaphalocrocis medinalis; conditions: 144 h, read-out: fatality rate on Cnaphalocrocis medinalis
Procedure: as §1, §2

Tetranychus cinnabarinus = assay: Acaricidal activity, slide immersion of female adult mites: Tetranychus cinnabarinus; conditions: 24 h, read-out: fatality rate on Tetranychus cinnabarinus
Procedure: The test method was as follows: a test solution with a desired concentration was prepared by dissolving a test compound sample in a suitable solvent (the kind of solvent was such as acetone, methanol, DMSO, etc., and was selected according to its dissolving ability for the sample). A double-sided adhesive tape was cut into 2-3 cm long pieces, the pieces were attached to one end of a microscope slide, paper pieces on the adhesive tape were removed using tweezers, female adult mites which were consistent in size, bright in body color and lively in action were selected using a zero-size brush pen, the backs of the female adult mites were adhered to the double-sided adhesive tape (note: the adhesion should not cover mite feet, mite whiskers and mouthparts), with 4 rows of mites adhered to each piece and 10 heads of the mites adhered to each row.
One end of the glass slide with the mites was immersed into a drug liquid, with slightly shaking for 5 seconds, and then the slide was taken out. The excess drug liquid around the mite body and is surroundings is quickly sucked off using absorbent paper. The slide was placed in the biochemical incubator described above, and the results were checked by using binoculars after 24 hours. The mites were slightly touched by using a brush pen, the mites with immobility in feet were considered to be dead, and the fatality rate was calculated. The fatality rate was calculated as follows: […]

Question: For `Cc1cc(C2=NOC(c3cc(Cl)c(F)c(Cl)c3)(C(F)(F)F)C2)ccc1C(=O)NCCc1ncc(C(F)(F)F)cc1Cl` (stereo not drawn) [Compound 19], which pest or weed control at 1 ppm [1] is on record?
Answer: The pest or weed control at 1 ppm was greater than 80%.

Question: And the pest or weed control at 10 ppm [1]?
Answer: The pest or weed control at 10 ppm was greater than 80%.

Question: And the pest or weed control at 25 ppm [1]?
Answer: The pest or weed control at 25 ppm was greater than 80%.

Question: And the pest or weed control at 0.1 ppm (Plutella xylostella)?
Answer: The pest or weed control at 0.1 ppm was greater than 80%.

Question: What about the pest or weed control at 1 ppm (Plutella xylostella) of the same molecule?
Answer: Its pest or weed control at 1 ppm is greater than 80%.

Question: And the pest or weed control at 10 ppm (Plutella xylostella)?
Answer: Its pest or weed control at 10 ppm is greater than 80%.

Question: And the pest or weed control at 0.1 ppm (Pieris rapae)?
Answer: Its pest or weed control at 0.1 ppm is greater than 80%.

Question: And the pest or weed control at 1 ppm (Pieris rapae)?
Answer: The pest or weed control at 1 ppm was greater than 80%.

Question: And the pest or weed control at 10 ppm (Pieris rapae)?
Answer: Its pest or weed control at 10 ppm is greater than 80%.

Question: And the pest or weed control at 0.1 ppm (Mythimna separata)?
Answer: The pest or weed control at 0.1 ppm was greater than 80%.

Question: And the pest or weed control at 1 ppm (Mythimna separata)?
Answer: The pest or weed control at 1 ppm was greater than 80%.

Question: What about the pest or weed control at 10 ppm (Mythimna separata) of the same molecule?
Answer: Its pest or weed control at 10 ppm is greater than 80%.

Question: And the pest or weed control at 0.1 ppm (Spodoptera litura)?
Answer: The pest or weed control at 0.1 ppm was greater than 80%.

Question: And the pest or weed control at 1 ppm (Spodoptera litura)?
Answer: Its pest or weed control at 1 ppm is greater than 80%.

Question: And the pest or weed control at 10 ppm (Spodoptera litura)?
Answer: The pest or weed control at 10 ppm was greater than 80%.

Question: And the pest or weed control at 0.1 ppm (Chilo suppressalis)?
Answer: The pest or weed control at 0.1 ppm was greater than 80%.

Question: What about the pest or weed control at 1 ppm (Chilo suppressalis) of the same molecule?
Answer: The pest or weed control at 1 ppm was greater than 80%.

Question: What about the pest or weed control at 10 ppm (Chilo suppressalis) of the same molecule?
Answer: Its pest or weed control at 10 ppm is greater than 80%.

Question: What about the pest or weed control at 0.1 ppm (Cnaphalocrocis medinalis) of the same molecule?
Answer: The pest or weed control at 0.1 ppm was greater than 80%.

Question: And the pest or weed control at 1 ppm (Cnaphalocrocis medinalis)?
Answer: The pest or weed control at 1 ppm was greater than 80%.

Question: And the pest or weed control at 10 ppm (Cnaphalocrocis medinalis)?
Answer: Its pest or weed control at 10 ppm is greater than 80%.

Question: And the pest or weed control at 1 ppm (Tetranychus cinnabarinus)?
Answer: The pest or weed control at 1 ppm was greater than 80%.

Question: What about the pest or weed control at 10 ppm (Tetranychus cinnabarinus) of the same molecule?
Answer: Its pest or weed control at 10 ppm is greater than 80%.

Question: What about the pest or weed control at 25 ppm (Tetranychus cinnabarinus) of the same molecule?
Answer: The pest or weed control at 25 ppm was greater than 80%.

Question: For `Cc1cc(C2=NOC(c3cc(Cl)c(F)c(Cl)c3)(C(F)(F)F)C2)ccc1C(=O)NCc1ccc(Cl)nc1` (stereo not drawn) [Compound 1, N-((6-chloropyridin-3-yl)methyl)-4-(5-(3,5-dichloro-4-fluorophenyl)-5-(trifluoromethyl)-4,5-dihydroisoxazol-3-yl)-2-methylbenzamide], which “Fatality rate on Frankliniella occidentalis (%)” value ([1]; 1 ppm) is on record?
Answer: Its value is 95%.

Question: What about the “Fatality rate on Frankliniella occidentalis (%)” value ([1]; 10 ppm) of the same molecule?
Answer: Its value is 100%.

Question: And the “Fatality rate on Frankliniella occidentalis (%)” value ([1]; 25 ppm)?
Answer: Its value is 100%.

Question: And the pest or weed control at 1 ppm [1]?
Answer: The pest or weed control at 1 ppm was greater than 80%.

Question: And the pest or weed control at 10 ppm [1]?
Answer: Its pest or weed control at 10 ppm is greater than 80%.

Question: And the pest or weed control at 25 ppm [1]?
Answer: Its pest or weed control at 25 ppm is greater than 80%.

Question: What about the “Fatality rate on Plutella xylostella (%)” value (Plutella xylostella; 0.1 ppm) of the same molecule?
Answer: Its value is 100%.

Question: And the “Fatality rate on Plutella xylostella (%)” value (Plutella xylostella; 1 ppm)?
Answer: The value was 100%.

Question: What about the “Fatality rate on Plutella xylostella (%)” value (Plutella xylostella; 10 ppm) of the same molecule?
Answer: The value was 100%.

Question: What about the pest or weed control at 0.1 ppm (Plutella xylostella) of the same molecule?
Answer: The pest or weed control at 0.1 ppm was greater than 80%.

Question: And the pest or weed control at 1 ppm (Plutella xylostella)?
Answer: The pest or weed control at 1 ppm was greater than 80%.

Question: What about the pest or weed control at 10 ppm (Plutella xylostella) of the same molecule?
Answer: The pest or weed control at 10 ppm was greater than 80%.

Question: What about the pest or weed control at 0.1 ppm (Pieris rapae) of the same molecule?
Answer: Its pest or weed control at 0.1 ppm is greater than 80%.

Question: And the pest or weed control at 1 ppm (Pieris rapae)?
Answer: Its pest or weed control at 1 ppm is greater than 80%.

Question: And the pest or weed control at 10 ppm (Pieris rapae)?
Answer: Its pest or weed control at 10 ppm is greater than 80%.

Question: And the “Fatality rate on Mythimna separata (%)” value (Mythimna separata; 0.1 ppm)?
Answer: The value was 95%.

Question: What about the “Fatality rate on Mythimna separata (%)” value (Mythimna separata; 1 ppm) of the same molecule?
Answer: Its value is 100%.

Question: What about the “Fatality rate on Mythimna separata (%)” value (Mythimna separata; 10 ppm) of the same molecule?
Answer: Its value is 100%.

Question: What about the pest or weed control at 0.1 ppm (Mythimna separata) of the same molecule?
Answer: The pest or weed control at 0.1 ppm was greater than 80%.

Question: What about the pest or weed control at 1 ppm (Mythimna separata) of the same molecule?
Answer: Its pest or weed control at 1 ppm is greater than 80%.

Question: And the pest or weed control at 10 ppm (Mythimna separata)?
Answer: The pest or weed control at 10 ppm was greater than 80%.

Question: And the pest or weed control at 0.1 ppm (Spodoptera litura)?
Answer: The pest or weed control at 0.1 ppm was greater than 80%.

Question: What about the pest or weed control at 1 ppm (Spodoptera litura) of the same molecule?
Answer: The pest or weed control at 1 ppm was greater than 80%.

Question: What about the pest or weed control at 10 ppm (Spodoptera litura) of the same molecule?
Answer: Its pest or weed control at 10 ppm is greater than 80%.

Question: What about the “Fatality rate on Chilo suppressalis (%)” value (Chilo suppressalis; 0.1 ppm) of the same molecule?
Answer: Its value is 90%.

Question: And the “Fatality rate on Chilo suppressalis (%)” value (Chilo suppressalis; 1 ppm)?
Answer: The value was 100%.

Question: And the “Fatality rate on Chilo suppressalis (%)” value (Chilo suppressalis; 10 ppm)?
Answer: Its value is 100%.

Question: And the pest or weed control at 0.1 ppm (Chilo suppressalis)?
Answer: The pest or weed control at 0.1 ppm was greater than 80%.

Question: And the pest or weed control at 1 ppm (Chilo suppressalis)?
Answer: The pest or weed control at 1 ppm was greater than 80%.

Question: What about the pest or weed control at 10 ppm (Chilo suppressalis) of the same molecule?
Answer: The pest or weed control at 10 ppm was greater than 80%.

Question: And the pest or weed control at 0.1 ppm (Cnaphalocrocis medinalis)?
Answer: Its pest or weed control at 0.1 ppm is greater than 80%.

Question: And the pest or weed control at 1 ppm (Cnaphalocrocis medinalis)?
Answer: Its pest or weed control at 1 ppm is greater than 80%.

Question: And the pest or weed control at 10 ppm (Cnaphalocrocis medinalis)?
Answer: Its pest or weed control at 10 ppm is greater than 80%.

Question: What about the pest or weed control at 1 ppm (Tetranychus cinnabarinus) of the same molecule?
Answer: Its pest or weed control at 1 ppm is greater than 80%.

Question: What about the pest or weed control at 10 ppm (Tetranychus cinnabarinus) of the same molecule?
Answer: Its pest or weed control at 10 ppm is greater than 80%.

Question: And the pest or weed control at 25 ppm (Tetranychus cinnabarinus)?
Answer: The pest or weed control at 25 ppm was greater than 80%.

Question: For `Cc1cc(C2=NOC(c3cc(Cl)cc(Cl)c3)(C(F)(F)F)C2)ccc1C(=O)NCc1ccc(Cl)nc1` (stereo not drawn) [CK1, reference compound], which “Fatality rate on Frankliniella occidentalis (%)” value ([1]; 1 ppm) is on record?
Answer: The value was 0%.

Question: What about the “Fatality rate on Frankliniella occidentalis (%)” value ([1]; 10 ppm) of the same molecule?
Answer: Its value is 40%.

Question: And the “Fatality rate on Frankliniella occidentalis (%)” value ([1]; 25 ppm)?
Answer: The value was 80%.

Question: And the “Fatality rate on Plutella xylostella (%)” value (Plutella xylostella; 0.1 ppm)?
Answer: Its value is 15%.

Question: What about the “Fatality rate on Plutella xylostella (%)” value (Plutella xylostella; 1 ppm) of the same molecule?
Answer: The value was 80%.

Question: And the “Fatality rate on Plutella xylostella (%)” value (Plutella xylostella; 10 ppm)?
Answer: The value was 100%.

Question: What about the “Fatality rate on Mythimna separata (%)” value (Mythimna separata; 0.1 ppm) of the same molecule?
Answer: The value was 10%.

Question: What about the “Fatality rate on Mythimna separata (%)” value (Mythimna separata; 1 ppm) of the same molecule?
Answer: The value was 80%.

Question: What about the “Fatality rate on Mythimna separata (%)” value (Mythimna separata; 10 ppm) of the same molecule?
Answer: Its value is 100%.

Question: What about the “Fatality rate on Chilo suppressalis (%)” value (Chilo suppressalis; 0.1 ppm) of the same molecule?
Answer: Its value is 0%.

Question: And the “Fatality rate on Chilo suppressalis (%)” value (Chilo suppressalis; 1 ppm)?
Answer: The value was 50%.

Question: What about the “Fatality rate on Chilo suppressalis (%)” value (Chilo suppressalis; 10 ppm) of the same molecule?
Answer: The value was 100%.
